Assay [1] has as its system M. croceipes. Also on record: species or system Microplitis croceipes. Conditions: in vivo.
The test system of assay [2] is Male and female M. croceipes. Also on record: species or system Microplitis croceipes. Conditions: in vivo.

The values below come from patent US20030148529A1 (priority 2000, published 2003).

Structures are written as SMILES.

Turning to `CCCCCC(=O)CC` [3-Octanone], in assay [1], the “Average number of times a trained wasp entered the opening” value was “approximately 1.5”, the “Average time spent in the opening” value was determined as 15 s and the “Trained wasps displaying head-sticking behavior” value is “about 18 out of 20”. The Head-sticking behavior entry in assay [2] is recorded as “no head-sticking behavior”.
